For data set [1] the following is noted: in vivo, po; cited from earlier work.
Data set [2] deals with L. monocytogenes EGDe. Type of data set: cell-based, Listeria monocytogenes. The note with it: EGDe, 18 h. Here is the method: The BCA assay was used according to the manufactures instructions to determine the concentration of the peptides. The MIC of the peptides was determined using a microtiter plate. Briefly, L. monocytogenes EGDe was inoculated into Listeria enrichment broth (LEB) and incubated overnight at 37 °C. The culture was inoculated into fresh LEB and incubated until an OD600 of 0.1 was reached. A series of peptide concentrations was prepared and 50 µL of each added per well, followed by the addition of 150 µL culture. The controls were ddH2O containing 0.1% (v/v) TFA with 150 µL culture or media. Microtiter plates were incubated at 37 °C and OD600 readings were taken at T0, T5 and T18 (hours). The MIC was determined as the lowest peptide concentration required to inhibit the growth of L. monocytogenes EGDe after 18 h.

Data set [3] deals with L. monocytogenes EGDe. Put plainly: Antimicrobial activity of NHS-fluorescein labelled versus unlabelled peptides (zone sizes). It counts as cell-based, Listeria monocytogenes. Particulars: 50 µM, 20 µL spotted on LEB agar seeded with L. monocytogenes EGDe, overnight 37 °C. As for the experimental part:
HPLC purified stock solutions of nisin A, plantaricin 423 and bacST4SA were prepared by dissolving the peptides in sterile ultrapure water. Immediately before conjugating NHS-fluorescein to the peptides, a stock solution of NHS-fluorescein was prepared by dissolving 1 mg of reagent in 100 µL DMF. The amount of NHS-fluorescein to be added to each peptide was calculated using the Eqs (2) and (3):2 mLpeptide×mgpeptide/mLpeptide×mmolpeptide/mgpeptide×15mmolNHS/mmolpeptide=mmolNHS 3 mmolNHS×473.4(MWofNHS)/mmolNHS×100µLDMF/1mg=µLNHS
The calculated concentration of NHS-fluorescein was added to the peptides and incubated on ice for 2 h. Non-reacted NHS-fluorescein was removed by Sep-Pak C18 column chromatography. Plantaricin 423 and bacST4SA were eluted with 60% acetonitrile containing 0.1% TFA and nisin A with 40% acetonitrile containing 0.1% TFA. Peptides were freeze dried and resuspended in sterile ultrapure water. Concentrations of the labelled peptides were determined with the BCA assay and diluted to 50 µM. Labelled peptides were filtered through a 0.45 µm HVLP membrane and spotted (20 µL) onto LEB agar seeded with 1% L. monocytogenes EGDe (OD600 0.1). Plates were incubated overnight at 37 °C and the fluorescent peptides visualised under a UVP 3UV Ultraviolet Lamp. Inhibition zones were measured using ImageJ software and compared to those of non-labelled peptides.

Bridges are numbered along the chain shown (N, C = ends). Where no end group is shown, it is not given here.

For the compound `CC1(C)S[C@@H]2[C@H](NC(=O)[C@H](N)c3ccc(O)cc3)C(=O)N2[C@H]1C(=O)O` [Amoxicillin], the bioavailability in data set [1] is listed as 74-92%.

Take `O=C(N[C@H](CO)[C@H](O)c1ccc([N+](=O)[O-])cc1)C(Cl)Cl` [Chloramphenicol]: the “time to peak blood levels” value in data set [1] was no more than 2 h.

As for `CC1(C)S[C@@H]2[C@H](NC(=O)COc3ccccc3)C(=O)N2[C@H]1C(=O)O` [penicillin V], the bioavailability in data set [1] was 60-70%.

The MIC is the lowest concentration that inhibits growth of the organism. A low value points to a more susceptible organism. As for “KYYGNGVSCNKKGCSVDWGKAIGIIGNNSAANLATGGAAGWKS (disulfide 9-14) [bacST4SA]”, the MIC in data set [2] was 10 µM. In data set [3], the “decrease in activity of labelled versus unlabelled peptide (antimicrobial zone sizes)” value was 21%.
